Measured values taken from the supplement of paper PMC8837787.

Tests used:
[1] = system: Saccharomyces cerevisiae ABC16-Green Monster; settings: 18 h; 30 °C; YPD
Description: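 Growth inhibition of the drug-sensitive S. cerevisiae ABC16-Green Monster strain (16 ABC transporters deleted) in YPD at 30 °C for 18 h. […] dilution series […] in biological replicates; IC50 from OD600 (18 h minus 0 h) fitted by variable-slope nonlinear regression in GraphPad Prism. Library compounds were first screened at 150 µM, and only those with at least 70% inhibition went to dose-response; the rest are marked inactive.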

[2] = system: Saccharomyces cerevisiae ABC16-Green Monster; test: growth inhibition at single dose (up to 150 µM), below the 70% cut-off for dose-response; higher = more potent; settings: 18 h; 30 °C; YPD
How it was run: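 The entry is percent growth inhibition of drug-sensitive S. cerevisiae ABC16-Green Monster cells. After overnight growth in YPD at 30 °C, cells were diluted to OD600 0.1–0.2 and exposed to each library compound at 150 µM in 200 µl per well, in biological duplicates with untreated cultures beside them, and OD600 was read at 0 h and after 18 h at 30 °C. Any compound under 70% in both replicates was not carried to dose-response.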

CC(C)CC(NC(=O)C(Cc1ccccc1)NC(=O)c1cnccn1)B(O)O (stereo unspecified) [Bortezomib]
IC50 growth inhibition [1]: 46.2 µM

COc1ccc2cc(CN(C)CC(=O)Nc3sccc3C(N)=O)ccc2c1
IC50 growth inhibition [1]: 60.6 µM

CC(c1cc(Cl)cc(Cl)c1)N(C)c1ncc2c(N)nc(N)nc2n1 (stereo unspecified)
IC50 growth inhibition [1]: 40.1 µM

CCC(NC(=O)c1ccccc1NC(=O)c1ccc(C)cc1)C(=O)OC (stereo unspecified)
IC50 growth inhibition [1]: 31.7 µM

COc1ccc(-c2onc(C(F)(F)F)c2-c2ccc(Cl)cc2)c(O)c1
IC50 growth inhibition [1]: 48.6 µM

CC(C)c1cc(NCCCN2CCOCC2)n2ncc(-c3ccccc3)c2n1
IC50 growth inhibition [1]: 25.1 µM

O=C(NCCc1ccccc1)c1cc(-c2cccnc2)cnc1NCC1CC1
IC50 growth inhibition [1]: 15.9 µM

CC(C)Oc1cc(Nc2nc(N[C@@H](C)c3ccc(F)cc3)c(C#N)cc2F)[nH]n1 [AZD-6918]
IC50 growth inhibition [1]: > 75 µM

CN(C)CCCN1c2ccccc2CCc2ccc(Cl)cc21.Cl [Clomipramine]
IC50 growth inhibition [1]: 18.3 µM

COc1ccc(-c2nnc3ccc(-c4cccc(C(C)C)c4)cn23)cc1OC
IC50 growth inhibition [1]: 52.3 µM

Cc1nc2ccccc2nc1SC(C)C(=O)c1c[nH]c2ccccc12 (stereo unspecified)
IC50 growth inhibition [1]: 33.8 µM

CCC(=O)NC(c1ccccc1Cl)c1cc(Cl)c2cccnc2c1O (stereo unspecified) [GNF-Pf-5038]
IC50 growth inhibition [1]: 6.51 µM

COc1ccccc1C(C)NCC(=O)Nc1cc(C(F)(F)F)ccc1Cl (stereo unspecified)
IC50 growth inhibition [1]: 32.4 µM

COc1cccc(-n2nnnc2S(C)(=O)=O)c1
IC50 growth inhibition [1]: 53.8 µM

OCc1ccc(-c2cncc(Nc3cccc(Cl)c3)c2)cc1
IC50 growth inhibition [1]: 6.31 µM

CC1=NN(c2nc3ccccc3s2)C(=O)C1Cc1cccc2ccccc12 (stereo unspecified)
IC50 growth inhibition [1]: 40.7 µM

CCS(=O)(=O)c1ncc(Cl)c(C(=O)Nc2cc(Cl)cc(Cl)c2)n1
IC50 growth inhibition [1]: 6.66 µM

COC1=CC(C)=CC(C)C(O)C(C)CC(C)=CC=CC(OC)C(C(C)C(O)C(C)C2(O)CC(O)C(C)C(C(C)C)O2)OC1=O (stereo unspecified) [Bafilomycin A1]
IC50 growth inhibition [1]: 0.164 µM

CC(C)c1ccc(C2C3CCc4ccccc4C3=NN2CCO)cc1 (stereo unspecified)
IC50 growth inhibition [1]: 49.9 µM

CN(C)C(=N)N=C(N)N [Metformin]
IC50 growth inhibition [1]: > 75 µM

CCC(=C(c1ccccc1)c1ccc(OCCN(C)C)cc1)c1ccccc1 [Tamoxifen]
IC50 growth inhibition [1]: 3.13 µM

COc1cc(CNC(=O)CCCCC=CC(C)C)ccc1O [Capsaicin]
IC50 growth inhibition [1]: > 150 µM

COC=C(C(=O)OC)c1ccccc1Oc1cc(Oc2ccccc2C#N)ncn1 [Azoxystrobin]
IC50 growth inhibition [1]: > 75 µM

CC(C)c1ccc(/C=C2\CCc3c2nc2ccccc2c3C(=O)O)cc1
IC50 growth inhibition [1]: 19.9 µM

COc1ccc(Nc2nc(Nc3ccc(C)cc3)nc(Sc3nc4ccccc4[nH]3)n2)cc1 [CBR499]
IC50 growth inhibition [1]: 2.31 µM

O=C(Nc1c(O)cccc1-c1nc2c(C(=O)O)cccc2o1)c1cc(-c2ccccc2)on1
IC50 growth inhibition [1]: 38.7 µM

O=c1c(Cl)c(Cl)cnn1-c1nc2ccccc2[nH]1
IC50 growth inhibition [1]: 13.2 µM

O=C1C2=C(Nc3ccccc3SC2c2ccc(OCc3ccccc3)cc2)c2ccccc21 (stereo unspecified) [GNF-PF-5338]
IC50 growth inhibition [1]: > 150 µM

c1ccc(-c2cn3nc(N4CCN(Cc5cn6ccccc6n5)CC4)sc3n2)cc1
IC50 growth inhibition [1]: 50.8 µM

CN1C=C(c2ccc3ccccc3n2)C(c2c[nH]c3ccccc23)c2ccccc21 (stereo unspecified)
growth inhibition at single dose [2]: < 70%

CC(C)NS(=O)(=O)c1cccc(CNc2ncnc3ccccc23)c1
growth inhibition at single dose [2]: < 70%

COc1ccccc1CNC(=O)CCn1c(=O)[nH]c2ccsc2c1=O
growth inhibition at single dose [2]: < 70%

CC(=O)c1ccc(NC(=O)CSc2nc(-c3ccccc3Cl)ns2)cc1
growth inhibition at single dose [2]: < 70%

O=C(Nc1nc(CN2CCOCC2)cs1)c1ccc(-c2ccc(Cl)cc2)s1
growth inhibition at single dose [2]: < 70%

Cc1ccc(S(=O)(=O)N2CCN(C(=O)c3cc(-c4ccccc4)[nH]n3)CC2)cc1
growth inhibition at single dose [2]: < 70%

Cc1nnc(NCc2cccc(Cl)c2)c2ccccc12
growth inhibition at single dose [2]: < 70%

Cc1nc2ccccc2c(O)c1CC=C(Cl)Cl
growth inhibition at single dose [2]: < 70%

CCOC(=O)c1c(C)[nH]c(C(=O)CSc2nccn2C)c1C
growth inhibition at single dose [2]: < 70%

CCOC(=O)C1CCN(C(=O)CN2C(=O)c3ccccc3C2c2c[nH]c3ccccc23)CC1 (stereo unspecified)
growth inhibition at single dose [2]: < 70%

COc1cccc(-c2nn(C)c3sc(C(=O)NCCN4CCN(c5ccccc5F)CC4)cc23)c1
growth inhibition at single dose [2]: < 70%

CCN1CCN(c2cc(C)c3cc(NC(=O)c4ccc(OC)c(OC)c4)ccc3n2)CC1
growth inhibition at single dose [2]: < 70%

FC(F)(F)c1nc(NCCNc2ccccn2)c2ccccc2n1
growth inhibition at single dose [2]: < 70%

CC(C)(C)OC(=O)N1CCC(Cn2nc(-c3cnc4ccccc4c3)c3c(N)ncnc32)CC1
growth inhibition at single dose [2]: < 70%

O=C(COc1ccc2[nH]c3ccccc3c(=O)c2c1)Nc1ccccc1Cc1ccccc1
growth inhibition at single dose [2]: < 70%

c1ccc(-c2[nH]c3ccccc3c2C(c2ccccn2)N2CCCC2)cc1 (stereo unspecified)
growth inhibition at single dose [2]: < 70%

COc1ccc(-c2nonc2NC(=O)c2cccc(C)c2)cc1OC
growth inhibition at single dose [2]: < 70%

O=C1COCc2ccc(Br)cc2N1Cc1ccc(C(F)(F)F)cc1
growth inhibition at single dose [2]: < 70%

COc1cccc(CC(=O)N2CCC(n3c(C)nc4ccc(F)cc43)CC2)c1
growth inhibition at single dose [2]: < 70%

FC(F)(F)c1nnc2ccc(Cl)nn12
growth inhibition at single dose [2]: < 70%

Cc1ccc(C)c(S(=O)(=O)N2CCN(C(=O)c3[nH]nc4ccccc34)CC2)c1
growth inhibition at single dose [2]: < 70%

CCc1ccc([C@@H]2C[C@H](C(F)(F)F)n3ncc(C(=O)NCc4ccc(OC)cc4)c3N2)cc1
growth inhibition at single dose [2]: < 70%

CC(C)(C)c1ccc(C(=O)Nc2c3c(nn2-c2cccc(Cl)c2)CSC3)cc1
growth inhibition at single dose [2]: < 70%

Cc1cc(C(=O)Oc2ccccc2C(N)=O)c(C)n1Cc1ccco1
growth inhibition at single dose [2]: < 70%

CN1CCN(c2ccc(Nc3c4ccccc4nc4ccccc34)cc2)CC1
growth inhibition at single dose [2]: < 70%

COc1ccc(/C=C2\N=C(SCC(=O)O)N(Cc3ccccc3)C2=O)cc1
growth inhibition at single dose [2]: < 70%

Cc1cc(N(C)C)nc(Nc2ccc(NC(=O)Nc3ccccc3)cc2)n1
growth inhibition at single dose [2]: < 70%

O=C1C2=C(Nc3ccccc3SC2c2ccccc2)c2ccccc21 (stereo unspecified)
growth inhibition at single dose [2]: < 70%

CS(=O)(=O)c1cccc(-c2cnc3[nH]cc(-c4ccc(CCC(=O)O)cc4)c3c2)c1
growth inhibition at single dose [2]: < 70%

Cc1ccc2cc(C3NC(=O)c4ccccc4N3)c(Cl)nc2c1 (stereo unspecified)
growth inhibition at single dose [2]: < 70%

CCC(O)c1ccc(Br)cc1NC(=O)c1cccc(Cl)c1 (stereo unspecified)
growth inhibition at single dose [2]: < 70%

Cc1cc(NCCN2CCCCC2)c2ccc3ccccc3c2n1
growth inhibition at single dose [2]: < 70%

CCOC(=O)C1=CN(C)C=C(C(=O)OCC)C1c1cc(Br)c(OCC)c(OC)c1
growth inhibition at single dose [2]: < 70%

CN(C(=O)CSc1nnc(COc2ccccc2F)n1N)C1CCCCC1
growth inhibition at single dose [2]: < 70%

CCOC(=O)c1c(NC(=O)c2ccccc2)sc2c(O)c(CN(CC)CC)ccc12
growth inhibition at single dose [2]: < 70%

N#Cc1ccc(Cc2cnc(NC(=O)c3ccc4ncsc4c3)s2)cc1
growth inhibition at single dose [2]: < 70%

CN(C)S(=O)(=O)c1ccc2oc(SCC(=O)Nc3cc(C(C)(C)C)no3)nc2c1
growth inhibition at single dose [2]: < 70%

CSc1nc2nc(C)c(CCC(=O)N(CC(F)(F)F)C(C)C3CC3)c(C)n2n1 (stereo unspecified)
growth inhibition at single dose [2]: < 70%

O=C(Nc1cnc2ccccc2c1)c1cccc(NC(=O)c2cccs2)c1
growth inhibition at single dose [2]: < 70%

CCCc1c(C)nc2ccccc2c1O
growth inhibition at single dose [2]: < 70%

Cc1nn(-c2ccc(F)cc2)c(Cl)c1/C=C1\C(=O)Nc2ccccc21
growth inhibition at single dose [2]: < 70%

O=C(Nc1cccc2ccccc12)N1CCN(c2ncccc2C(F)(F)F)CC1
growth inhibition at single dose [2]: < 70%

CCN(CC)CCNc1ncnc2c1[nH]c1ccc(Cl)cc12
growth inhibition at single dose [2]: < 70%

Nc1nccnc1C(=O)Nc1nc2cc3c(cc2s1)OCCO3
growth inhibition at single dose [2]: < 70%

Cc1ccc(O)c(C(=O)NCCc2ccc3c(c2)OCCO3)c1
growth inhibition at single dose [2]: < 70%

COc1ccc(OC(C)C(=O)Nc2ccc(Cl)cc2C)cc1 (stereo unspecified)
growth inhibition at single dose [2]: < 70%

Cc1cc(O)nc(-n2nc(C)cc2C)n1
growth inhibition at single dose [2]: < 70%
